Assay results from US9102675B2, “3-Cyanoaryl-1H-pyrrolo[2,3-B] pyridine derivatives” (MERCK PATENT GMBH, priority 2011, dated 2015).
Where two headings read alike, the source gives them in different places.

Tests used:
[1] = system: TBK1 + IKKε; experiment: TBK1 + IKKε cell assay: dose response inhibition of phospho-IRF3 @ Ser 386 in MDA-MB-468 cells after poly(I:C) stimulation; type: cell-based; details: nuclear phospho-IRF3 Ser386, read-out: TBK1 + IKKε cell assay IC50
Text: Dose response inhibition of phospho-IRF3 @ Ser 386 cell/MDAMB468/INH/PHOS/IMAG/pIRF3
Although TBK1 and IKKε are mainly known as key substances in the innate immune response, recent findings have indicated a role for TBK1 and IKKε in Ras-induced oncogenic transformation. TBK1 was identified as RaIB effector in the Ras-like (RaI)-guanine nucleotide exchange factor (GEF) pathway that is required for Ras-induced transformation. TBK1 directly activates IRF3 which, on phosphorylation, homodimerises and translocates to the nucleus, where it activates processes associated with inflammation, immune regulation, cell survival and proliferation.
This assay has been developed in order to assess the efficacy/potency of TBK1/IKKε inhibitor compounds based on the immunocytochemical detection of nucleus-localised phospho-IRF3, a target directly downstream of TBK1. Treatment with polyinosine-polycytidylic acid (poly(I:C), a synthetic analogue of double-stranded RNA (dsRNA), a molecular pattern associated with viral infection and recognised by Toll-like receptor 3 (TLR3) is used to induce TBK1/IKKε activity and IRF3 phosphorylation at Ser386.
Day 1: MDA-MB-468 cells are detached using HyQ-Tase, counted and sown into a 384-well plate with TC surface and clear bottom in a density of 10,000 cells per well in a total volume of 35 μl of complete medium. Alternatively, the cells are sown directly from frozen glass vials.
Day 2: The cells are pre-treated with inhibitor compounds for 1 h prior to poly(I:C) stimulation. After incubation for 2 h with poly(I:C), the cells are fixed in (para)formaldehyde (PFA) and permeabilised using methanol (MeOH). The cells are then blocked and incubated with an anti-pIRF3 antibody at 4° C. overnight.
Day 3: The primary antibody is washed off, an AlexaFluor488-conjugated secondary antibody is added, the cells are contrast-stained with propidium iodide, followed by image acquisition on an IMX ultra-high content reader.
Plating medium=culture medium: • RPMI 1640, Invitrogen #31870 • 10% of FCS, Invitrogen #10270-106 • 2 mM Glutamax, Invitrogen #35050-038 • 1 mM sodium pyruvate, Invitrogen #11360 • 1% of Pen/Strep • 37° C., 5% of CO2
Plates: 384-well bottom cell culture plates with black/clear bottom, Falcon #35 3962 or Greiner #781090
Subcultivation: HyQ-Tase, Thermo Scientific (HyClone) # SV30030.01
Poly(I:C) (LMW), Invitrogen # tlrl-picw (prepare 20 mg/ml stock solution in sterile PBS, denature 30 min 55° C. in a water bath, slowly cool to RT, store at −20° C. in aliquots)
a 10-point dose-response curve with MSC2119074A-4=BX-795 is included in each experiment
Formaldehyde (methanol-free, 16%, ultrapure EM grade), Polysciences #18814 (storage RT), final conc.: 4%
Goat serum, PAA # B15-035 (storage 4° C., long term −20° C.), final conc.: 10%
BSA (IgG- and protease-free, 30%), US-Biological # A1317 (storage 4° C., long term −20° C.), final conc.: 2%
Tween 20 detergent, Calbiochem #655204 (storage RT), (prepare 10% stock solution in water; final conc.: 0.1%)
Anti-pIRF-3 rabbit mAb, Epitomics #2526-B (storage −20° C.), final conc.: 1:2000 in PBS/2% of BSA
Alexa Fluor goat-anti-rabbit-488, Invitrogen # A11034 or # A11008 (storage 4° C., dark), final conc.: 1:2000 in PBS/2% of BSA/0.1% of Tween
Propidium iodide (PI), Fluka #81845, 1 mg/ml in H2O (storage 4° C., dark), final conc.: 0.2 μg/ml
(1) Sow 10,000 cells/well/35μof complete RPMI +10% FCS into 384-well bottom cell culture plates with black / clear bottom,
(2) Incubate for 2 h at room temperature on the bench, followed by further incubation for 22 h at 37° C., 5% of CO2 and 90% RH. […]

[2] = molecular target: T1, TANK binding kinase (TBK1) (Homo sapiens, UniProt Q9UHD2); experiment: TBK1 enzyme assay (384-well flashplate kinase assay); type: biochemical; details: 10 μM ATP, 0.6 nM TBK1
T1 sequence (Q9UHD2 1-729): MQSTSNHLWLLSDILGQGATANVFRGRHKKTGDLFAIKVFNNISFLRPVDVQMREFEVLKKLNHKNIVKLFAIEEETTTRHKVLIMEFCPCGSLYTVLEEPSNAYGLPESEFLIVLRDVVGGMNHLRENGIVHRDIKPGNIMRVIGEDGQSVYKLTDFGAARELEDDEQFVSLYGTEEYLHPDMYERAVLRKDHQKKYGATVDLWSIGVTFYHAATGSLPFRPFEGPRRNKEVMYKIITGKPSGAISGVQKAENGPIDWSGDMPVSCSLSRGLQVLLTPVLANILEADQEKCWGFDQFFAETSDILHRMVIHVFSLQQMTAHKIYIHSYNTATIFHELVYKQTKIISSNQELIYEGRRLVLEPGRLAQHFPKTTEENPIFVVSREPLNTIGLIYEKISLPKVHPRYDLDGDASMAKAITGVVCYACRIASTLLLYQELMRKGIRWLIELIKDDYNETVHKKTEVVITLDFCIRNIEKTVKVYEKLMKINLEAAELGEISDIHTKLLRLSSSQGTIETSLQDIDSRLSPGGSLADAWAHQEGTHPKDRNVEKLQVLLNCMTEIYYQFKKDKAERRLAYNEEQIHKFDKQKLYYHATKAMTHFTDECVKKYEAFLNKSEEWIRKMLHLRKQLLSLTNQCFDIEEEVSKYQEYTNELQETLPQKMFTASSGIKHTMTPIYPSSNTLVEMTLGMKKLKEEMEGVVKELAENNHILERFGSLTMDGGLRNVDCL
Protocol: Test for the Inhibition of TBK1
The kinase assay is performed as 384-well flashplate assay (for example for Topcount measurement).
0.6 nM TANK binding kinase (TBK1), 800 nM biotinylated MELK-derived peptide (biotin-Ah-Ah-[…]) and 10 μM ATP (spiked with 0.25 μCi of ^33P-ATP/well) are incubated at 30° C. for 120 min in a total volume of 50 μl (10 mM MOPS, 10 mM Mg acetate, 0.1 mM EGTA, 1 mM DTT, 0.02% of Brij35, 0.1% of BSA, pH 7.5) with or without test compound. The reaction is stopped with 25 μl of 200 mM EDTA. After 30 min at room temperature, the liquid is removed, and each well is washed three times with 100 μl of 0.9% sodium chloride solution. Non-specific reaction is measured in the presence of 100 nM staurosporine. The radioactivity is measured in a Topcount (PerkinElmer). The results (for example IC50 values) are calculated using program tools provided by the IT Department (for example Assay-Explorer, Symyx). Cell Test

[3] = Homo sapiens, MDA-MB-468, MDA-MB-468 cells

| SMILES | IC50 [1, 3] | IC50 [2] | IC50 ([1]; MDA-MB-468 cells) |
| --- | --- | --- | --- |
| N#Cc1cc(-c2c[nH]c3ncccc23)ccc1OC1CCOCC1 [Compound A1, 5-(1H-pyrrolo[2,3-b]pyridin-3-yl)-2-tetrahydropyran-4-yloxybenzonitrile] | 3000 to 50000 nM | < 300 nM | – |
| Cn1cc(-c2cnc3[nH]cc(-c4ccc(OC5CCOCC5)c(C#N)c4)c3c2)cn1 [Compound A4, 5-[5-(1-methylpyrazol-4-yl)-1H-pyrrolo[2,3-b]pyridin-3-yl]-2-tetrahydropyran-4-yloxybenzonitrile] | 300 to 3000 nM | < 300 nM | – |
| N#Cc1cc(-c2c[nH]c3ncc(-c4cnn(CCN5CCOCC5)c4)cc23)ccc1OC1CCOCC1 [Compound A7, 5-[5-[1-(2-morpholinoethyl)pyrazol-4-yl]-1H-pyrrolo[2,3-b]pyridin-3-yl]-2-tetrahydropyran-4-yloxybenzonitrile] | 300 to 3000 nM | < 300 nM | – |
| N#Cc1cc(-c2c[nH]c3ncc(-c4ccc(N5CCOCC5)cc4)cc23)ccc1OC1CCOCC1 [Compound A8, 5-[5-(4-morpholinophenyl)-1H-pyrrolo[2,3-b]pyridin-3-yl]-2-tetrahydropyran-4-yloxybenzonitrile] | 3000 to 50000 nM | < 300 nM | – |
| COCCn1cc(-c2cnc3[nH]cc(-c4ccc(OC5CCOCC5)c(C#N)c4)c3c2)cn1 [Compound A10, 5-[5-[1-(2-methoxyethyl)pyrazol-4-yl]-1H-pyrrolo[2,3-b]pyridin-3-yl]-2-tetrahydropyran-4-yloxybenzonitrile] | < 300 nM | < 300 nM | – |
| CN1CCC(Oc2ccc(-c3c[nH]c4ncc(-c5cnn(C)c5)cc34)cc2C#N)CC1 [Compound A13, 2-(1-methylpiperidin-4-yloxy)-5-[5-(1-methyl-1H-pyrazol-4-yl)-1H-pyrrolo[2,3-b]pyridin-3-yl]benzonitrile] | 3000 to 50000 nM | < 300 nM | – |
| N#Cc1cc(-c2c[nH]c3ncc(-c4cnn(CCO)c4)cc23)ccc1OC1CCOCC1 [Compound A15, 5-[5-[1-(2-hydroxyethyl)pyrazol-4-yl]-1H-pyrrolo[2,3-b]pyridin-3-yl]-2-tetrahydropyran-4-yloxybenzonitrile] | < 300 nM | < 300 nM | – |
| CN1CCC(n2cc(-c3cnc4[nH]cc(-c5ccc(OC6CCOCC6)c(C#N)c5)c4c3)cn2)CC1 [Compound A16, 5-[5-[1-(1-methyl-4-piperidyl)pyrazol-4-yl]-1H-pyrrolo[2,3-b]pyridin-3-yl]-2-tetrahydropyran-4-yloxybenzonitrile] | < 300 nM | < 300 nM | – |
| CN1CCN(c2cnc3[nH]cc(-c4ccc(OC5CCOCC5)c(C#N)c4)c3c2)CC1 [Compound A17, 5-[5-(4-methylpiperazin-1-yl)-1H-pyrrolo[2,3-b]pyridin-3-yl]-2-tetrahydropyran-4-yloxybenzonitrile] | 3000 to 50000 nM | 300 to 3000 nM | – |
| N#Cc1cc(-c2c[nH]c3ncc(-c4cnn(C5CCNCC5)c4)cc23)cnc1OC1CCOCC1 [Compound A18, 5-[5-[1-(4-piperidyl)pyrazol-4-yl]-1H-pyrrolo[2,3-b]pyridin-3-yl]-2-tetrahydropyran-4-yloxypyridine-3-carbonitrile] | 300 to 3000 nM | < 300 nM | – |

Further lines, results first:

| IC50 [1, 3] | IC50 [2] | IC50 ([1]; MDA-MB-468 cells) | SMILES |
| --- | --- | --- | --- |
| 300 to 3000 nM | < 300 nM | – | N#Cc1cc(-c2c[nH]c3ncc(-c4cnn(CCN5CCCC5)c4)cc23)ccc1OC1CCOCC1 [Compound A9, 5-[5-[1-(2-pyrrolidin-1-ylethyl)pyrazol-4-yl]-1H-pyrrolo[2,3-b]pyridin-3-yl]-2-tetrahydropyran-4-yloxybenzonitrile] |
| 300 to 3000 nM | < 300 nM | – | N#Cc1cc(-c2c[nH]c3ncc(-c4cnn(C5CCNCC5)c4)cc23)ccc1OC1CCOCC1 [Compound A12, 5-[5-(1-piperidin-4-yl-1H-pyrazol-4-yl)-1H-pyrrolo[2,3-b]pyridin-3-yl]-2-(tetrahydropyran-4-yloxy)benzonitrile] |
| – | < 300 nM | 300 to 3000 nM | CN1CCC(n2cc(-c3cnc4[nH]cc(-c5ccc(OC6CCOCC6)c(C#N)c5)c4c3)cn2)CC1 [Compound A20, 5-[5-[1-(1-methyl-4-piperidyl)pyrazol-4-yl]-1H-pyrrolo[2,3-b]pyridin-3-yl]-2-tetrahydropyran-4-yloxybenzonitrile] |
| 300 to 3000 nM | < 300 nM | – | N#Cc1cc(-c2c[nH]c3ncc(OCCN4CCOCC4)cc23)ccc1OC1CCOCC1 [Compound A21, 5-[5-(2-morpholinoethoxy)-1H-pyrrolo[2,3-b]pyridin-3-yl]-2-tetrahydropyran-4-yloxybenzonitrile] |
| – | < 300 nM | 300 to 3000 nM | N#Cc1cc(-c2c[nH]c3ncc(-c4cn(C5CCNCC5)nn4)cc23)ccc1OC1CCOCC1 [Compound A22, 5-[5-[1-(4-piperidyl)triazol-4-yl]-1H-pyrrolo[2,3-b]pyridin-3-yl]-2-tetrahydropyran-4-yloxybenzonitrile] |
| – | < 300 nM | 300 to 3000 nM | CN1CCC(n2cc(-c3cnc4[nH]cc(-c5ccc(OC6CCOCC6)c(C#N)c5)c4c3)nn2)CC1 [Compound A23, 5-[5-[1-(1-methyl-4-piperidyl)triazol-4-yl]-1H-pyrrolo[2,3-b]pyridin-3-yl]-2-tetrahydropyran-4-yloxybenzonitrile] |
| 300 to 3000 nM | < 300 nM | – | CC1(COc2ccc(-c3c[nH]c4ncc(-c5cnn(C6CCNCC6)c5)cc34)cc2C#N)COC1 [Compound A24, 2-[(3-Methyloxetan-3-yl)methoxy]-5-[5-[1-(4-piperidyl)pyrazol-4-yl]-1H-pyrrolo[2,3-b]pyridin-3-yl]-benzonitrile] |
